The text below walks through data of patent US4461773A, “P-Oxooxazolidinylbenzene compounds as antibacterial agents” (E. I. DuPont de Nemours and Company, priority 1984, dated 1984).

A word on the ED50: it is the dose at which the effect has come halfway, by size or by number of responders.

Assay [1] concerns S. epidermidis. Kind of assay: In vitro broth microdilution minimal inhibitory concentration, S. epidermidis (Table I). It counts as cell-based. The following applies: Staphylococcus epidermidis; broth microdilution, Mueller-Hinton broth, 24 hour; read-out: MIC (minimal inhibitory concentration), S. epidermidis. An excerpt: (§1) A list is presented in Table I of analogs which exert an in-vitro antibacterial effect.
For orientation: Dilution methods test growth across graded concentrations, often in twofold steps.

For assay [2], the system named is E. Coli. The experiment in a line: In vitro broth microdilution minimal inhibitory concentration, E. Coli (Table I). The format is cell-based. The following applies: Escherichia coli; broth microdilution, Mueller-Hinton broth, 24 hour; read-out: MIC (minimal inhibitory concentration), E. Coli.
Description: as §1

The test system of assay [3] is E. Coli. Kind of assay: In vitro antibacterial spectrum, agar dilution (Table II). It counts as cell-based. To be noted: Escherichia coli, 86 isolates, 24-hour, 35° C. How it is done: (§2) A summary of the in-vitro antibacterial spectrum of l-4-[5-(hydroxymethyl)-2-oxooxazolidin-3-yl]benzenesulfonamide, is shown in Table II. The minimal inhibitory concentrations for the aerobic and facultative anaerobic test isolates representing two gram-positive and eleven gram-negative genera were determined by an agar dilution method. The method is state of the art and is as follows. Mueller-Hinton agar plates are prepared containing two-fold compound concentrations ranging from 128 μg/ml to 1.0 μg/ml for the susceptibility testing of the bacterial strains except Neisseria gonorrhoea and Hemophilus sp. The latter organisms are tested using GC agar containing 1% Bacto-Supplement C (Difco Laboratories, Detroit, Mich.) and are incubated under 6% CO2. The agar plates are inoculated with a 0.001 ml calibrated loopful of bacterial inoculum diluted to contain 5×10^6 colony-forming units (CFU) per ml.
(In general: In agar dilution, organisms are placed on agar that contains the substance at set levels.)

In assay [4] the test system is Enterobacter sp. The assay is described as above. The format is cell-based. The following applies: 41 isolates, 24-hour, 35° C. How it is done: as §2
In assay [5] the test system is Haemophilus sp. The assay is described as above. The following applies: 4 isolates, GC agar, 6% CO2, 24-hour, 35° C. The format is cell-based. How it is done:
as §2

In assay [6] the test system is Klebsiella sp. Described as above. It counts as cell-based. The following applies: 50 isolates, 24-hour, 35° C. Here is the method:
as §2

Assay [7] relates to Neisseria sp. The description is as above. The format is cell-based. The following applies: 43 isolates, 24-hour, 35° C. How it is done: as §2
Assay [8] concerns Proteus sp. The description is as above. The format is cell-based. To be noted: 88 isolates, 24-hour, 35° C. Here is the method:
as §2

For assay [9], the system named is Providencia sp. Described as above. To be noted: 12 isolates, 24-hour, 35° C. The format is cell-based. Here is the method: as §2
Assay [10] relates to Pseudomonas sp. The description is as above. The format is cell-based. To be noted: 79 isolates, 24-hour, 35° C. How it is done: as §2
The subject of assay [11] is Salmonella sp. The assay is described as above. The format is cell-based. The following applies: 6 isolates, 24-hour, 35° C. How it is done:
as §2

The test system of assay [12] is Serratia sp. The description is as above. The format is cell-based. The following applies: 44 isolates, 24-hour, 35° C. How it is done: as §2
The subject of assay [13] is Shiqella sp. The assay is described as above. The format is cell-based. The following applies: 24 h, read-out: MEAN MIC, Shiqella sp. How it is done:
as §2

Assay [14] has as its system Staphylococci sp. The description is as above. The format is cell-based. The following applies: 38 isolates, 24-hour, 35° C. Here is the method: as §2
Assay [15] relates to Streptococci sp. Described as above. To be noted: 14 isolates, 24-hour, 35° C. The format is cell-based. Here is the method:
as §2

Assay [16] has as its system Bacteroides sp. The experiment in a line: In vitro antibacterial spectrum, agar dilution for anaerobic bacteria (Table II). The format is cell-based. To be noted: 23 isolates. How it is done:
(§3) The agar dilution method described by A. L. Barry ("The Antimicrobic Susceptibility Test: Principles and Practice", 1976, Lea and Febiger, Philadelphia, Pa.) with compound concentrations of 32 μg/ml to 0.06 μg/ml, was used to determine the inhibitory activity of l-4-[5-(hydroxymethyl)-2-oxooxazolidin-3-yl]benzenesulfonamide for anaerobic bacteria.

Assay [17] relates to Clostridium sp. The assay is described as above. The format is cell-based. To be noted: 5 isolates. How it is done:
as §3

Assay [18] has as its system Fusobacterium sp. Described as above. It counts as cell-based. The following applies: 4 isolates. How it is done:
as §3

In assay [19] the test system is Gram - Anaerobic Cocci. The assay is described as above. The format is cell-based. To be noted: 7 isolates. Here is the method: as §3
Assay [20] has as its system Staphylococcus aureus. The experiment in a line: In vivo efficacy in mice infected intraperitoneally with Staphylococcus aureus (Table III). The following applies: 4 h, mice, intraperitoneal infection, 5% hog gastric mucin, oral dosing at infection and four hours post-infection, Reed-Muench, read-out: ED50, S. auerus. Here is the method: (§4) In-vivo efficacy determinations were performed by inoculating mice interaperitoneally with cultures of the infecting organism diluted to produce 90-100% mortality in control animals within seven days. The diluents used were trypticase soy broth for E. coli, Proteus sp. and Psuedomonas aeruginosa and 5% hog gastric mucin for Staphylococcus aureus infections. The compounds, dissolved or suspended in 0.25% methocel.cndot.H2 O were administered orally by intubation at the time of infection and again at four hours post-infection. Mortality was recorded daily until test termination and the 50 percent effective dose. ED50, was calculated by the Reed-Muench method (Reed, L. G. and Muench, H., "A simple method of estimating fifty percent end points." American Journal of Hygiene, 27, 1938, 493-497).

The subject of assay [21] is E. coli. Kind of assay: In vivo efficacy in mice infected intraperitoneally with E. coli (Table III). To be noted: Escherichia coli, 4 h; mice, intraperitoneal infection, trypticase soy broth; oral dosing at infection and four hours post-infection; Reed-Muench; read-out: ED50, E. Coli. How it is done: as §4

In brackets after ≈: the same amount, converted by molar mass.

`NS(=O)(=O)c1ccc(N2C[C@@H](CO)OC2=O)cc1` [Example 2, l-4-[5-(Hydroxymethyl)-2-oxooxazolidin-3-yl]benzenesulfonamide]: the MIC in assay [1] is 100 µg/mL (≈ 367 µM); in assay [2], 50 µg/mL (≈ 184 µM); in assay [3], 29.8 µg/mL (≈ 109 µM); in assay [4] it was 58.5 µg/mL (≈ 215 µM); in [5], 32 µg/mL (≈ 118 µM); in assay [6], 39.4 µg/mL (≈ 145 µM). For the same compound, the MIC in assay [7] is 12.3 µg/mL (≈ 45.2 µM); in assay [8], 29.1 µg/mL (≈ 107 µM); in assay [9] it was 41.3 µg/mL (≈ 152 µM); in assay [10], no less than 117 µg/mL; in [11], 32 µg/mL (≈ 118 µM); in [12] it was no less than 96 µg/mL. Also, the MIC in assay [13] was 8 µg/mL (≈ 29.4 µM); in assay [14], 22.3 µg/mL (≈ 81.9 µM); in assay [15] it was 7.7 µg/mL (≈ 28.3 µM); in assay [16], no less than 15.1 µg/mL; in [17], 16.8 µg/mL (≈ 61.7 µM); in assay [18], 0.9 µg/mL (≈ 3.31 µM). In addition, the MIC in assay [19] was 6.1 µg/mL (≈ 22.4 µM). Also, the ED50 was 17.1 mg/kg in [20] and 13.2 mg/kg in assay [21].
